The target in the first data set is T1, PDE5 obtained from bovine aorta (Bos taurus, UniProt Q28156).
T1 construct: from tissue; host or cells: bovine aorta
Description: cGMP-PDE inhibition assay using PDE5 obtained from bovine aorta. The class given is biochemical. Conditions: read-out: PDE5 IC50 (Bov. aorta). The method, then: (§1) cGMP-PDE activity of compounds of the present invention was measured using a one-step assay adapted from Wells et al., Biochim. Biophys. Acta, 384, 430 (1975). The reaction medium contained 50 mM Tris-HCl, pH 7.5, 5 mM magnesium acetate, 250 μg/ml 5′-Nucleotidase, 1 mM EGTA, and 0.15 μM 8-[H^3]-cGMP. Unless otherwise indicated, the enzyme used was a human recombinant PDE5 (ICOS Corp., Bothell, Wash.).
(§2) Compounds of the invention were dissolved in DMSO finally present at 2% in the assay.
As for `COc1ccc([C@@H]2c3[nH]c4ccccc4c3C[C@@H]3C(=O)N(CCN(C)C)CC(=O)N23)cc1` [Example 9], the IC50 (usually the concentration that inhibits the measured activity by half) amounted to 70 nM.
With `O=C1[C@H]2Cc3c([nH]c4ccccc34)[C@@H](c3ccc4c(c3)OCO4)N2C(=O)CN1CCO` [Example 10], the IC50 worked out at 5 nM.
With `COc1ccc([C@@H]2c3[nH]c4ccccc4c3C[C@@H]3C(=O)N(CCCN(C)C)CC(=O)N23)cc1` [Example 11], the half-maximal inhibitory concentration (IC50) was found to be 650 nM.
Regarding `COc1ccc([C@@H]2c3[nH]c4ccccc4c3C[C@@H]3C(=O)N(CCCN4CCN(C)CC4)CC(=O)N23)cc1` [Example 12], the IC50 turned out to be 100 nM.
As for `COC(=O)CN1CC(=O)N2[C@H](c3ccc4c(c3)OCO4)c3[nH]c4ccccc4c3C[C@@H]2C1=O` [Example 19], the IC50 is 4 nM.
In the case of `NC(=O)CN1CC(=O)N2[C@H](c3ccc4c(c3)OCO4)c3[nH]c4ccccc4c3C[C@@H]2C1=O` [Example 20], the IC50 amounted to 10 nM.

In the next data set the target is T2, human recombinant PDE5 (Homo sapiens, UniProt O76074).
T2 construct: host or cells: Saccharomyces cerevisiae, protease-deficient strain BJ2-54 (ATCC 74465)
Description: cGMP-PDE one-step inhibition assay, human recombinant PDE5. The class given is biochemical. Conditions: 0.15 μM 8-[H3]-cGMP, 30 min incubation. The method, then:
The compounds of structural formula (I) were tested for an ability to inhibit PDE5. The ability of a compound to inhibit PDE5 activity is related to the IC50 value for the compound, i.e., the concentration of inhibitor required for 50% inhibition of enzyme activity. The IC50 value for compounds of structural formula (I) were determined using recombinant human PDE5.
The production of recombinant human PDEs and the IC50 determinations can be accomplished by well-known methods in the art. Exemplary methods are described as follows:
Recombinant production of human PDE1B, PDE2, PDE4A, PDE4B, PDE4C, PDE4D, PDE5, and PDE7 was carried out similarly to that described in Example 7 of U.S. Pat. No. 5,702,936, incorporated herein by reference, except that the yeast transformation vector employed, which is derived from the basic ADH2 plasmid described in Price et al., Methods in Enzymology, 185, pp. 308-318 (1990), incorporated yeast ADH2 promoter and terminator sequences and the Saccharomyces cerevisiae host was the protease-deficient strain BJ2-54 deposited on Aug. 31, 1998 with the American Type Culture Collection, Manassas, Va., under accession number ATCC 74465. Transformed host cells were grown in 2×SC-leu medium, pH 6.2, with trace metals, and vitamins. After 24 hours, YEP medium-containing glycerol was added to a final concentration of 2×YET/3% glycerol. Approximately 24 hr later, cells were harvested, washed, and stored at −70° C. […]
Cell pellets (29 g) were thawed on ice with an equal volume of Lysis Buffer (25 mM Tris HCl, pH 8, 5 mM MgCl2, 0.25 mM DTT, 1 mM benzamidine, and 10 μM ZnSO4). Cells were lysed in a Microfluidizer® (Microfluidics Corp.) using nitrogen at 20,000 psi. The lysate was centrifuged and filtered through 0.45 μm disposable filters. The filtrate was applied to a 150 mL column of Q SEPHAROSE® Fast-Flow (Pharmacia). The column was washed with 1.5 volumes of Buffer A (20 mM Bis-Tris Propane, pH 6.8, 1 mM MgCl2, 0.25 mM DTT, 10 μM ZnSO4) and eluted with a step gradient of 125 mM NaCl in Buffer A followed by a linear gradient of 125-1000 mM NaCl in Buffer A. Active fractions from the linear gradient were applied to a 180 mL hydroxyapatite column in Buffer B (20 mM Bis-Tris Propane (pH 6.8), 1 mM MgCl2, 0.25 mM DTT, 10 μM ZnSO4, and 250 mM KCl). After loading, the column was washed with 2 volumes of Buffer B and eluted with a linear gradient of 0-125 mM potassium phosphate in Buffer B. Active fractions were pooled, precipitated with 60% ammonium sulfate, and resuspended in Buffer C (20 mM Bis-Tris Propane, pH 6.8, 125 mM NaCl, 0.5 mM DTT, and 10 μM ZnSO4). The pool was applied to a 140 mL column of […]® S-300 HR and eluted with Buffer C. Active fractions were diluted to 50% glycerol and stored at −20° C.
as §1, §2
Turning to `O=C1[C@H]2Cc3c([nH]c4ccccc34)[C@@H](c3ccc4c(c3)OCO4)N2C(=O)CN1O` [Example 2, (6R,12aR)-6-Benzo[1,3]dioxo-5-yl-2-hydroxy-2,3,6,7,12,12a-hexahydropyrazino[1′,2′:1,6]-pyrido[3,4-b]indole-1,4-dione], the IC50 turned out to be 7.5 nM.
Regarding `O=C1C2Cc3c([nH]c4ccccc34)C(c3ccc4c(c3)OCO4)N2C(=O)CN1CCn1cncn1` (stereo not drawn) [Example 82], the IC50 worked out at 30 nM.
On the same count and under the same terms, the same measure for `CNc1cc(CN2CC(=O)N3[C@H](c4ccc5c(c4)OCO5)c4[nH]c5ccccc5c4C[C@@H]3C2=O)cc([N+](=O)[O-])c1` [Example 83]: 40 nM; for `CN1CCN(NC(=O)CN2CC(=O)N3[C@H](c4ccc5c(c4)OCO5)c4[nH]c5ccccc5c4C[C@@H]3C2=O)CC1` [Example 84]: 120 nM.
`Cn1cnc2cc(CN3CC(=O)N4[C@H](c5ccc6c(c5)OCO6)c5[nH]c6ccccc6c5C[C@@H]4C3=O)ccc21` [Example 85]: the half-maximal inhibitory concentration (IC50) is 20 nM.
In the case of `CC(C)(C)OC(=O)CN1CC(=O)N2[C@H](c3ccc4c(c3)OCO4)c3[nH]c4ccccc4c3C[C@@H]2C1=O` [Example 86], the IC50 is 70 nM.
Same read-out and setting: the result for `COC(=O)CN1CC(=O)N2[C@H](c3ccc4c(c3)OCO4)c3[nH]c4ccccc4c3C[C@@H]2C1=O` [Example 87] reads 20 nM; that for `CCCCCCCCOC(=O)CN1CC(=O)N2[C@H](c3ccc4c(c3)OCO4)c3[nH]c4ccccc4c3C[C@@H]2C1=O` [Example 88], 110 nM.

Test system in the next data set: not given
Test: not given
Details: not given
With `O=C1[C@H]2Cc3c([nH]c4ccccc34)[C@@H](c3ccc4c(c3)OCO4)N2C(=O)CN1O` [Example 2, (6R,12aR)-6-Benzo[1,3]dioxo-5-yl-2-hydroxy-2,3,6,7,12,12a-hexahydropyrazino[1′,2′:1,6]-pyrido[3,4-b]indole-1,4-dione], the melting point (usually the temperature, or range, at which the solid turns liquid) is 276 to 283 °C (dec.).

For the origin of these results see patent US6911542B2, “Pyrazino[1′,2′:1,6]pyrido[3,4b]indole derivatives” (Lilly Icos LLC., priority 2000, dated 2005).
